Assay results published in the supplement of paper PMC10307832.

Key:
Test in all cases: relative viability (nuclei count vs DMSO), 5 days (fraction); higher = more cells survive
HOP-62 = test system: HOP-62
Summary of the method: (§1)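 Relative viability is defined as nuclei in treated wells over nuclei in vehicle wells. Duplicate plates were run and medians reported. Lung cancer cell lines in 1536-well plates were dosed by pin tool one day after seeding, with one drug or with a fixed anchor-drug dose plus five library-drug doses (not always all listed) in √10 steps, and nuclei were counted after 5 days.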

LCLC-103H = test system: LCLC-103H
Summary of the method: as §1

LOU-NH91 = test system: LOU-NH91
Summary of the method: as §1

NCI-H2126 = test system: NCI-H2126
Summary of the method: as §1

NCI-H460 = test system: NCI-H460
Summary of the method: as §1

NCI-H520 = test system: NCI-H520
Summary of the method: as §1

NCI-H2170 = test system: NCI-H2170
Summary of the method: as §1

NCI-H727 = test system: NCI-H727
Summary of the method: as §1

EMC-BAC-2 = test system: EMC-BAC-2
Summary of the method: as §1

NCI-H650 = test system: NCI-H650
Summary of the method: as §1

NCI-H1437 = test system: NCI-H1437
Summary of the method: as §1

ChaGo-K-1 = test system: ChaGo-K-1
Summary of the method: as §1

NCI-H23 = test system: NCI-H23
Summary of the method: as §1

NCI-H1793 = test system: NCI-H1793
Summary of the method: as §1

NCI-H2009 = test system: NCI-H2009
Summary of the method: as §1

NCI-H647 = test system: NCI-H647
Summary of the method: as §1

SW 1573 = test system: SW 1573
Summary of the method: as §1

NCI-H441 = test system: NCI-H441
Summary of the method: as §1

NCI-H2347 = test system: NCI-H2347
Summary of the method: as §1

EPLC-272H = test system: EPLC-272H
Summary of the method: as §1

NCI-H2023 = test system: NCI-H2023
Summary of the method: as §1

HCC-44 = test system: HCC-44
Summary of the method: as §1

NCI-H2405 = test system: NCI-H2405
Summary of the method: as §1

Cc1cnc(-c2cnc(NCCNc3ccc(C#N)cn3)nc2-c2ccc(Cl)cc2Cl)[nH]1 + CCNC(=O)c1noc(-c2cc(C(C)C)c(O)cc2O)c1-c1ccc(CN2CCOCC2)cc1 [Luminespib] (partner 0.01 µM)
relative viability (HOP-62; first compound 0.08 µM): 0.955
relative viability (HOP-62; first compound 0.253 µM): 0.841
relative viability (HOP-62; first compound 0.8 µM): 0.79
relative viability (HOP-62; first compound 2.53 µM): 0.738
relative viability (LCLC-103H; first compound 0.08 µM): 1.08
relative viability (LCLC-103H; first compound 0.253 µM): 0.865
relative viability (LCLC-103H; first compound 0.8 µM): 0.933
relative viability (LCLC-103H; first compound 2.53 µM): 0.826
relative viability (LOU-NH91; first compound 0.08 µM): 0.367
relative viability (LOU-NH91; first compound 0.253 µM): 0.369
relative viability (LOU-NH91; first compound 0.8 µM): 0.322
relative viability (LOU-NH91; first compound 2.53 µM): 0.376
relative viability (NCI-H2126; first compound 0.08 µM): 1.11
relative viability (NCI-H2126; first compound 0.253 µM): 0.861
relative viability (NCI-H2126; first compound 0.8 µM): 0.966
relative viability (NCI-H2126; first compound 2.53 µM): 0.903
relative viability (NCI-H460; first compound 0.08 µM): 0.0473
relative viability (NCI-H460; first compound 0.253 µM): 0.0403
relative viability (NCI-H460; first compound 0.8 µM): 0.0345
relative viability (NCI-H460; first compound 2.53 µM): 0.0279
relative viability (NCI-H520; first compound 0.08 µM): 0.257
relative viability (NCI-H520; first compound 0.253 µM): 0.203
relative viability (NCI-H520; first compound 0.8 µM): 0.227
relative viability (NCI-H520; first compound 2.53 µM): 0.208
relative viability (NCI-H2170; first compound 0.08 µM): 0.984
relative viability (NCI-H2170; first compound 0.253 µM): 0.593
relative viability (NCI-H2170; first compound 0.8 µM): 0.667
relative viability (NCI-H2170; first compound 2.53 µM): 0.655
relative viability (NCI-H727; first compound 0.08 µM): 0.272
relative viability (NCI-H727; first compound 0.253 µM): 0.345
relative viability (NCI-H727; first compound 0.8 µM): 0.362
relative viability (NCI-H727; first compound 2.53 µM): 0.337
relative viability (EMC-BAC-2; first compound 0.08 µM): 1.25
relative viability (EMC-BAC-2; first compound 0.253 µM): 1.05
relative viability (EMC-BAC-2; first compound 0.8 µM): 1.23
relative viability (EMC-BAC-2; first compound 2.53 µM): 1.09
relative viability (NCI-H650; first compound 0.08 µM): 0.806
relative viability (NCI-H650; first compound 0.253 µM): 0.768
relative viability (NCI-H650; first compound 0.8 µM): 0.758
relative viability (NCI-H650; first compound 2.53 µM): 0.76
relative viability (NCI-H1437; first compound 0.08 µM): 1.06
relative viability (NCI-H1437; first compound 0.253 µM): 1.06
relative viability (NCI-H1437; first compound 0.8 µM): 1.14
relative viability (NCI-H1437; first compound 2.53 µM): 1.14
relative viability (ChaGo-K-1; first compound 0.08 µM): 0.622
relative viability (ChaGo-K-1; first compound 0.253 µM): 0.608
relative viability (ChaGo-K-1; first compound 0.8 µM): 0.603
relative viability (ChaGo-K-1; first compound 2.53 µM): 0.538
relative viability (NCI-H23; first compound 0.08 µM): 0.22
relative viability (NCI-H23; first compound 0.253 µM): 0.218
relative viability (NCI-H23; first compound 0.8 µM): 0.216
relative viability (NCI-H23; first compound 2.53 µM): 0.209
relative viability (NCI-H1793; first compound 0.08 µM): 0.18
relative viability (NCI-H1793; first compound 0.253 µM): 0.173
relative viability (NCI-H1793; first compound 0.8 µM): 0.147
relative viability (NCI-H1793; first compound 2.53 µM): 0.201
relative viability (NCI-H2009; first compound 0.08 µM): 1.03
relative viability (NCI-H2009; first compound 0.253 µM): 0.984
relative viability (NCI-H2009; first compound 0.8 µM): 0.995
relative viability (NCI-H2009; first compound 2.53 µM): 0.975
relative viability (NCI-H647; first compound 0.08 µM): 0.144
relative viability (NCI-H647; first compound 0.253 µM): 0.131
relative viability (NCI-H647; first compound 0.8 µM): 0.135
relative viability (NCI-H647; first compound 2.53 µM): 0.166
relative viability (SW 1573; first compound 0.08 µM): 0.162
relative viability (SW 1573; first compound 0.253 µM): 0.277
relative viability (SW 1573; first compound 0.8 µM): 0.344
relative viability (SW 1573; first compound 2.53 µM): 0.234
relative viability (NCI-H441; first compound 0.08 µM): 0.409
relative viability (NCI-H441; first compound 0.253 µM): 0.342
relative viability (NCI-H441; first compound 0.8 µM): 0.311
relative viability (NCI-H441; first compound 2.53 µM): 0.276
relative viability (NCI-H2347; first compound 0.08 µM): 0.267
relative viability (NCI-H2347; first compound 0.253 µM): 0.266
relative viability (NCI-H2347; first compound 0.8 µM): 0.346
relative viability (NCI-H2347; first compound 2.53 µM): 0.518
relative viability (EPLC-272H; first compound 0.08 µM): 0.308
relative viability (EPLC-272H; first compound 0.253 µM): 0.313
relative viability (EPLC-272H; first compound 0.8 µM): 0.209
relative viability (EPLC-272H; first compound 2.53 µM): 0.192
relative viability (NCI-H2023; first compound 0.08 µM): 0.872
relative viability (NCI-H2023; first compound 0.253 µM): 0.751
relative viability (NCI-H2023; first compound 0.8 µM): 0.863
relative viability (NCI-H2023; first compound 2.53 µM): 0.774
relative viability (HCC-44; first compound 0.08 µM): 1.21
relative viability (HCC-44; first compound 0.253 µM): 0.968
relative viability (HCC-44; first compound 0.8 µM): 1.14
relative viability (HCC-44; first compound 2.53 µM): 1.24
relative viability (NCI-H2405; first compound 0.08 µM): 0.763
relative viability (NCI-H2405; first compound 0.253 µM): 0.552
relative viability (NCI-H2405; first compound 0.8 µM): 0.822
relative viability (NCI-H2405; first compound 2.53 µM): 0.574
